Holding throughout (test): Cell surface CD20 levels by flow cytometry (FACS) after GSI treatment
Format in all cases: cell-based
(In general: In flow cytometry, cells or beads pass a laser one at a time.)

One assay concerns Rec-1 (MCL). The settings on record: separate experiment, 0.001-10 μM, 7 days at 37° C., FIG. 2. On the procedure:
(§1) In a separate experiment, cells from lymphoma cell lines SUDHL-4 (DLBCL); Rec-1 (MCL); and SP49 (MCL) were seeded at 1×10^4 cells/well in a total volume of 250 μl into a 96-well plate. The cells were cultured in RPMI supplemented with 10% FCS.
(§2) Compound 1 or Compound 22 were added to the cell cultures at concentrations of 10, 1, 0.5, 0.1, 0.01, 0.001 μM. Following 7 days of incubation at 37° C., the cells were collected and stained with anti CD20 antibody and cell surface CD20 levels were immediately analyzed by flow cytometry (FACS analysis).

For another assay, the system named is SP49 cells. Particulars: for cell surface CD20 levels: SP49 (MCL with Notch4 GOF), 7 days, 0-10000 nM, FIGS. 1A-1B. The procedure: (§3) The effect of γ-secretase inhibitors (GSIs) on levels of CD20 in lymphoma cell lines was examined (FIG. 1). Cells from five different lymphoma cell lines (SP49 (mantle cell lymphoma (MCL) with Notch4 GOF); Toledo (Diffuse large B-cell lymphoma (DLBCL)); RC (Double Hit DLBCL-MYC, BCL2); SUDHL-4 (DLBCL); and SUDHL-6 (DLBCL)) were treated for 7 days with 0, 1 nM, 10 nM, 100 nM, 500 nM, 1000 nM, and 10000 nM of the following GSIs: Compound 1 (FIG. 1A) or Compound 22 (FIG. 1B). Cell surface CD20 levels were observed by flow cytometry (FACS analysis).
as §1, §2

The next assay deals with SUDHL-4 cells. The settings on record: SUDHL-4 (DLBCL); for CD20 levels: separate experiment, 0.001-10 μM, 7 days at 37° C., FIG. 2. The procedure: as §3, §1, §2

Here are results for two molecules from patent US20210379079A1, “COMPOSITIONS COMPRISING CD20 INHIBITORS AND BISFLUOROALKYL-1,4-BENZODIAZEPINONE COMPOUNDS AND METHODS OF USE THEREOF” (Ayala Pharmaceuticals Inc., priority 2018, published 2021).

`CN1C(=O)[C@@H](NC(=O)[C@H](CCC(F)(F)F)[C@H](CCC(F)(F)F)C(N)=O)N=C(c2ccccc2)c2ccccc21` [Compound 1, (2R,3S)-N-((3S)-1-methyl-2-oxo-5-phenyl-2,3-dihydro-1H-1,4-benzodiazepin-3-yl)-2,3-bis(3,3,3-trifluoropropyl)succinamide]: the CD20 levels entry with Rec-1 (MCL) is recorded as “dose-dependent increase in CD20 levels”; with SP49 cells (separate experiment, SP49 (MCL), 0.001-10 μM, 7 days at 37° C., FIG. 2), “dose-dependent increase in CD20 levels”; in the assay on SUDHL-4 cells, “dose-dependent increase in CD20 levels”. Further, the “cell surface CD20 levels” value was “increased cell surface CD20 levels” with SP49 cells and “increased cell surface CD20 levels” with SUDHL-4 cells (7 days, 0-10000 nM, FIG. 1A).
With `Cc1cccc2c1NC(=O)[C@@H](NC(=O)[C@H](CCC(F)(F)F)[C@H](CCC(F)(F)F)C(N)=O)N=C2c1cccc(F)c1` [Compound 22, (2R,3S)-N-((3S)-5-(3-fluorophenyl)-9-methyl-2-oxo-2,3-dihydro-1H-1,4-benzodiazepin-3-yl)-2,3-bis(3,3,3-trifluoropropyl)succinamide], the CD20 levels entry in the assay with Rec-1 (MCL) and with SUDHL-4 cells was “dose-dependent increase in CD20 levels” throughout. In the assay on SP49 cells, the “cell surface CD20 levels” value is “increased cell surface CD20 levels”.
